Patent publication US20260265265A1, “NOVEL BENZIMIDAZOLONE DERIVATIVE COMPOUND AS AUTOTAXIN INHIBITOR” (LG CHEM, LTD., priority 2023, published 2026)
pIC50: −log10 of the molar value.

target: T1, Recombinant Human ENPP-2/Autotaxin (Homo sapiens, UniProt Q13822); assay: LysoPLD activity measurement (autotaxin enzyme inhibition, choline release, TOOS reagent); assay type: biochemical; conditions: LysoPLD inhibitory activity; substrate 14:0 LysoPC; absorbance at 555 nm
T1 construct: purchased R&D systems 5255-EN
Outline: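 Autotaxin lysoPLD activity was read as choline released from 14:0 LysoPC, detected by TOOS reagent absorbance. Compound was preincubated 30 min, then substrate diluted to 300 μM was added and the reaction ran 90 minutes at 37° C. Controls contained 1% DMSO.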

**Q.** O=C(O)c1cccc(C2(n3c(=O)n(-c4ccc(N5CCOCC5)cc4)c4cc(Cl)cnc43)CC2)c1 [Example 222, 3-(1-(6-chloro-1-(4-morpholinophenyl)-2-oxo-1,2-dihydro-3H-imidazo[4,5-b]pyridin-3-yl)cyclopropyl)benzoic acid] was tested. Which pIC50 did it give?
**A.** > 8.00

**Q.** How did the pIC50 turn out when CN(C)C(=O)c1ccc(-n2c(=O)n(C3(c4cccc(C(=O)O)c4)CC3)c3ncc(Cl)cc32)cc1 [Example 223, 3-(1-(6-chloro-1-(4-(dimethylcarbamoyl)phenyl)-2-oxo-1,2-dihydro-3H-imidazo[4,5-b]pyridin-3-yl)cyclopropyl)benzoic acid] was run?
**A.** > 8.00

**Q.** With O=C(O)c1cccc(C2(n3c(=O)n(-c4ccc(C(=O)N5CC(O)C5)cc4)c4cc(Cl)cnc43)CC2)c1 [Example 224, 3-(1-(6-chloro-1-(4-(3-hydroxyazetidine-1-carbonyl)phenyl)-2-oxo-1,2-dihydro-3H-imidazo[4,5-b]pyridin-3-yl)cyclopropyl)benzoic acid] as the molecule, how does the pIC50 read?
**A.** > 8.00

**Q.** With O=C(O)c1cccc(C2(n3c(=O)n(-c4ccc(C(=O)N5CC6(CCOCC6)C5)cc4)c4cc(Cl)cnc43)CC2)c1 [Example 225, 3-(1-(1-(4-(7-oxa-2-azaspiro[3.5]nonane-2-carbonyl)phenyl)-6-chloro-2-oxo-1,2-dihydro-3H-imidazo[4,5-b]pyridin-3-yl)cyclopropyl)benzoic acid] as the molecule, how does the pIC50 read?
**A.** > 8.00

**Q.** How did the pIC50 turn out when CN(C)C(=O)Cc1ccc(-n2c(=O)n(C3(c4cccc(C(=O)O)c4)CC3)c3ncc(Cl)cc32)cc1 [Example 226, 3-(1-(6-chloro-1-(4-(2-(dimethylamino)-2-oxoethyl)phenyl)-2-oxo-1,2-dihydro-3H-imidazo[4,5-b]pyridin-3-yl)cyclopropyl)benzoic acid] was run?
**A.** 7.00 to 8.00

**Q.** CS(=O)(=O)c1ccc(-n2c(=O)n(C3(c4cccc(C(=O)O)c4)CC3)c3ncc(Cl)cc32)cc1 [Example 227, 3-(1-(6-chloro-1-(4-(methylsulfonyl)phenyl)-2-oxo-1,2-dihydro-3H-imidazo[4,5-b]pyridin-3-yl)cyclopropyl)benzoic acid] was tested. Which pIC50 did it give?
**A.** 7.00 to 8.00

**Q.** O=C(O)c1cccc(C2(n3c(=O)n(-c4ccc(C5CCOCC5)cc4)c4cc(Cl)cnc43)CC2)c1F [Example 228, 3-(1-(6-chloro-2-oxo-1-(4-(tetrahydro-2H-pyran-4-yl)phenyl)-1,2-dihydro-3H-imidazo[4,5-b]pyridin-3-yl)cyclopropyl)-2-fluorobenzoic acid] was tested. Which pIC50 did it give?
**A.** 7.00 to 8.00

**Q.** How did the pIC50 turn out when CN(C)c1ccc(-n2c(=O)n(C3(c4cccc(C(=O)O)c4F)CC3)c3ncc(Cl)cc32)cc1 [Example 229, 3-(1-(6-chloro-1-(4-(dimethylamino)phenyl)-2-oxo-1,2-dihydro-3H-imidazo[4,5-b]pyridin-3-yl)cyclopropyl)-2-fluorobenzoic acid] was run?
**A.** > 8.00

**Q.** With O=C(O)c1cccc(C2(n3c(=O)n(-c4ccc(N5CCOCC5)cc4)c4cc(Cl)cnc43)CC2)c1F [Example 230] as the molecule, how does the pIC50 read?
**A.** 7.00 to 8.00

**Q.** O=C(O)c1cccc(C2(n3c(=O)n(-c4ccc(C(=O)N5CCCC5)cc4)c4cc(Cl)cnc43)CC2)c1F [Example 231, 3-(1-(6-chloro-2-oxo-1-(4-(pyrrolidine-1-carbonyl)phenyl)-1,2-dihydro-3H-imidazo[4,5-b]pyridin-3-yl)cyclopropyl)-2-fluorobenzoic acid] was tested. Which pIC50 did it give?
**A.** > 8.00

**Q.** How did the pIC50 turn out when O=C(O)c1cccc(C2(n3c(=O)n(-c4ccc(C(=O)N5CC(O)C5)cc4)c4cc(Cl)cnc43)CC2)c1F [Example 232, 3-(1-(6-chloro-1-(4-(3-hydroxyazetidine-1-carbonyl)phenyl)-2-oxo-1,2-dihydro-3H-imidazo[4,5-b]pyridin-3-yl)cyclopropyl)-2-fluorobenzoic acid] was run?
**A.** > 8.00

**Q.** O=C(O)c1cccc(C2(n3c(=O)n(-c4ccc(C(=O)N5CC6(COC6)C5)cc4)c4cc(Cl)cnc43)CC2)c1F [Example 233, 3-(1-(1-(4-(2-oxa-6-azaspiro[3.3]heptane-6-carbonyl)phenyl)-6-chloro-2-oxo-1,2-dihydro-3H-imidazo[4,5-b]pyridin-3-yl)cyclopropyl)-2-fluorobenzoic acid] was tested. Which pIC50 did it give?
**A.** 7.00 to 8.00

**Q.** How did the pIC50 turn out when CCC(=O)N1CCC(c2ccc(-n3c(=O)n(C4(c5cccc(C(=O)O)c5)CC4)c4ccc(Cl)cc43)cc2)CC1 [Example 234, 3-(1-(5-chloro-2-oxo-3-(4-(1-propionylpiperidin-4-yl)phenyl)-2,3-dihydro-1H-benzo[d]imidazol-1-yl)cyclopropyl)benzoic acid] was run?
**A.** > 8.00

**Q.** CCC(=O)N1CCC(c2ccc(-n3c(=O)n(C4(c5cc(F)cc(C(=O)O)c5)CC4)c4ccc(Cl)cc43)cc2)CC1 [Example 235, 3-(1-(5-chloro-2-oxo-3-(4-(1-propionylpiperidin-4-yl)phenyl)-2,3-dihydro-1H-benzo[d]imidazol-1-yl)cyclopropyl)-5-fluorobenzoic acid] was tested. Which pIC50 did it give?
**A.** > 8.00

**Q.** O=C(O)c1cccc(C2(n3c(=O)n(-c4ccc(CN5CCCC5=O)cc4)c4cc(Cl)ccc43)CC2)c1 [Example 236, 3-(1-(5-chloro-2-oxo-3-(4-((2-oxopyrrolidin-1-yl)methyl)phenyl)-2,3-dihydro-1H-benzo[d]imidazol-1-yl)cyclopropyl)benzoic acid] was tested. Which pIC50 did it give?
**A.** > 8.00

**Q.** How did the pIC50 turn out when O=C(O)c1cccc(C2(n3c(=O)n(-c4ccc(Cn5cnc(C(F)(F)F)c5)cc4)c4cc(Cl)ccc43)CC2)c1 [Example 237, 3-(1-(5-chloro-2-oxo-3-(4-((4-(trifluoromethyl)-1H-imidazol-1-yl)methyl)phenyl)-2,3-dihydro-1H-benzo[d]imidazol-1-yl)cyclopropyl)benzoic acid] was run?
**A.** 7.00 to 8.00

**Q.** How did the pIC50 turn out when O=C(O)c1cccc(C2(n3c(=O)n(-c4ccc(C5(CO)CC5)cc4)c4cc(Cl)ccc43)CC2)c1 [Example 238, 3-(1-(5-chloro-3-(4-(1-(hydroxymethyl)cyclopropyl)phenyl)-2-oxo-2,3-dihydro-1H-benzo[d]imidazol-1-yl)cyclopropyl)benzoic acid] was run?
**A.** > 8.00

**Q.** O=C(O)c1cccc(C2(n3c(=O)n(-c4ccc(C5(CO)CCC5)cc4)c4cc(Cl)ccc43)CC2)c1 [Example 239, 3-(1-(5-chloro-3-(4-(1-(hydroxymethyl)cyclobutyl)phenyl)-2-oxo-2,3-dihydro-1H-benzo[d]imidazol-1-yl)cyclopropyl)benzoic acid] was tested. Which pIC50 did it give?
**A.** > 8.00

**Q.** How did the pIC50 turn out when O=C(O)c1cccc(C2(n3c(=O)n(-c4ccc(CC5COC5)cc4)c4cc(Cl)ccc43)CC2)c1 [Example 240, 3-(1-(5-chloro-3-(4-(oxetan-3-ylmethyl)phenyl)-2-oxo-2,3-dihydro-1H-benzo[d]imidazol-1-yl)cyclopropyl)benzoic acid] was run?
**A.** > 8.00

**Q.** How did the pIC50 turn out when CN1CCN(Cc2ccc(-n3c(=O)n(C4(c5cccc(C(=O)O)c5)CC4)c4ccc(Cl)cc43)cc2)C1=O [Example 241, 3-(1-(5-chloro-3-(4-((3-methyl-2-oxoimidazolin-1-yl)methyl)phenyl)-2-oxo-2,3-dihydro-1H-benzo[d]imidazol-1-yl)cyclopropyl)benzoic acid] was run?
**A.** > 8.00

**Q.** CC1(C)COC(=O)N1c1ccc(-n2c(=O)n(C3(c4cccc(C(=O)O)c4)CC3)c3ccc(Cl)cc32)cc1 [Example 242, 3-(1-(5-chloro-3-(4-(4,4-dimethyl-2-oxooxazolidin-3-yl)phenyl)-2-oxo-2,3-dihydro-1H-benzo[d]imidazol-1-yl)cyclopropyl)benzoic acid] was tested. Which pIC50 did it give?
**A.** > 8.00

**Q.** With O=C(O)c1cccc(C2(n3c(=O)n(-c4ccc(N5C(=O)OCC56CC6)cc4)c4cc(Cl)ccc43)CC2)c1 [Example 243, 3-(1-(5-chloro-2-oxo-3-(4-(5-oxo-6-oxa-4-azaspiro[2.4]heptan-4-yl)phenyl)-2,3-dihydro-1H-benzo[d]imidazol-1-yl)cyclopropyl)benzoic acid] as the molecule, how does the pIC50 read?
**A.** > 8.00

**Q.** O=C(O)c1cccc(C2(n3c(=O)n(-c4ccc(Cn5ccc(C(F)(F)F)n5)cc4)c4cc(Cl)ccc43)CC2)c1 [Example 244, 3-(1-(5-chloro-2-oxo-3-(4-((3-(trifluoromethyl)-1H-pyrazol-1-yl)methyl)phenyl)-2,3-dihydro-1H-benzo[d]imidazol-1-yl)cyclopropyl)benzoic acid] was tested. Which pIC50 did it give?
**A.** 6.00 to 7.00

**Q.** How did the pIC50 turn out when CN1Cc2cc(-n3c(=O)n(C4(c5cccc(C(=O)O)c5)CC4)c4ccc(Cl)cc43)ccc2C1=O [Example 245, 3-(1-(5-chloro-3-(2-methyl-1-oxoisoindolin-5-yl)-2-oxo-2,3-dihydro-1H-benzo[d]imidazol-1-yl)cyclopropyl)benzoic acid] was run?
**A.** > 8.00

**Q.** With CC(C)(O)c1ccc(-n2c(=O)n(C3(c4cccc(C(=O)O)c4)CC3)c3ccc(Cl)cc32)cc1 [Example 246, 3-(1-(5-chloro-3-(4-(2-hydroxypropane-2-yl)phenyl)-2-oxo-2,3-dihydro-1H-benzo[d]imidazol-1-yl)cyclopropyl)benzoic acid] as the molecule, how does the pIC50 read?
**A.** > 8.00

**Q.** With CC1(c2ccc(-n3c(=O)n(C4(c5cccc(C(=O)O)c5)CC4)c4ccc(Cl)cc43)cc2)COC1 [Example 247, 3-(1-(5-chloro-3-(4-(3-methyloxetan-3-yl)phenyl)-2-oxo-2,3-dihydro-1H-benzo[d]imidazol-1-yl)cyclopropyl)benzoic acid] as the molecule, how does the pIC50 read?
**A.** > 8.00

**Q.** O=C(O)c1cccc(C2(n3c(=O)n(-c4ccc(C5CCOC5)cc4)c4cc(Cl)ccc43)CC2)c1 (centres unmarked) [Example 248, 3-(1-(5-chloro-2-oxo-3-(4-(tetrahydrofuran-3-yl)phenyl)-2,3-dihydro-1H-benzo[d]imidazol-1-yl)cyclopropyl)benzoic acid] was tested. Which pIC50 did it give?
**A.** > 8.00

**Q.** How did the pIC50 turn out when O=C(O)c1cc(F)cc(C2(n3c(=O)n(-c4ccc(C5CCOC5)cc4)c4cc(Cl)ccc43)CC2)c1 (centres unmarked) [Example 249, 3-(1-(5-chloro-2-oxo-3-(4-(tetrahydrofuran-3-yl)phenyl)-2,3-dihydro-1H-benzo[d]imidazol-1-yl)cyclopropyl)-5-fluorobenzoic acid] was run?
**A.** > 8.00

**Q.** With O=C(O)c1cccc(C2(n3c(=O)n(-c4ccc(C5CCOC5)cc4)c4cc(Cl)ccc43)CC2)c1F (centres unmarked) [Example 250, 3-(1-(5-chloro-2-oxo-3-(4-(tetrahydrofuran-3-yl)phenyl)-2,3-dihydro-1H-benzo[d]imidazol-1-yl)cyclopropyl)-2-fluorobenzoic acid] as the molecule, how does the pIC50 read?
**A.** > 8.00
